Test system: Superior cervical ganglia (SCG) neurons
Assay: Bioassay of neuronal survival in primary superior cervical ganglia neurons
Format: cell-based, Sprague Dawley rat
Conditions: primary SCG neurons from E-21 rat pups, microfluidic devices
Text: The SCG assay was adapted to compartmented cultures and updated to grow primary neurons in microfluidic devices SCG neurons were harvested from E-21 Sprague Dawley rat pups. If labeled NGF has similar bioavailability to the unlabeled NGF, i.e., TrkA binding sites remain intact. FIG. 2 (right) compares left panels of study article with right panels showing treatment with NGF only.

Substance: nerve growth factor [NGF]
- neuronal survival: appear to show neuronal survival

— patent US20240293562A1, “METHODS FOR USING NEUROTROPHIN RECEPTOR BINDING CONJUGATE COMPOSITIONS IN THE TREATMENT OF A NEUROLOGICAL CONDITION” (Manzanita Pharmaceuticals, Inc., priority 2020, published 2024)
